The nature of data set [1]: Genotoxicity in human HepG2 cells assessed as induction of DNA strand breaks at 1 mM measured after 2 hrs by alkali comet assay. The following applies: hepg2, 1000 µM.
Data set [2] is described as follows: Genotoxicity in human HepG2 cells assessed as induction of alkali labile sites at 1 mM measured after 2 hrs by alkali comet assay. The following applies: hepg2, 1000 µM.

Take `COS(C)(=O)=O` [METHANESULFONIC ACID METHYL ESTER]: the Activity entry in data set [1] and in data set [2] was “Toxic” in each case.
